In patent publication US7009045B2 (priority 2000, dated 2006):

Legend:
Format in all cases: cell-based
[1] = test system: Candida famata regulatory mutants able to overproduce riboflavin; assay: Sensitivity to K2Cr2O7, solid Burkholder medium with 0.5% glycerol (Table 14); design: key: +++: strong growth; ++: weak growth; —: absence of growth
Protocol: The sensitivity of the regulatory mutants of the yeast C. famata which overproduce riboflavin in iron rich medium probably due to defects in genes regulating repression (repression mutants), to different ions of heavy metals was studied. For this, the analyzed strains were streaked on the YPD plates and then were replica-plated on Burkholder synthetic medium containing leucine (40 μg/ml). The C.famata mutants L20105-40-1-11, L20105-40-1-17, L20105-3-2-1, L20105-3-2-8 and L20105-3-2-12 (all contained leu2 marker) accumulated 80–100 μg riboflavin/ml. The mutants #75, 4-48, 2-5 produced much higher amounts of riboflavin (200–250 μg/ml) but were prototrophs for leucine synthesis. Strain #75 was characterized by retarded growth comparing with other mutants. The strains VKM Y-9 (wild type) and L20105 (leu2) were used as the control strains.

[2] = test system: Candida famata regulatory mutants unable to overproduce riboflavin; assay: Sensitivity to K2Cr2O7, Burkholder medium (Table 10)
Excerpt: In the next experiments, the influence of cobalt and chromium ions on the growth and riboflavin synthesis of regulatory mutants having defects in derepression (derepression mutants) was studied.

[3] = test system: Pichia guilliermondii wild type and regulatory mutants (rib81); assay: Sensitivity after electroporation to K2Cr2O7, medium with 0.5% glycerol (Table 21); design: key: +++: strong growth; ++: weak growth; —: absence of growth
Excerpt: The possibility for positive selection of P. guilliermondii rib81 transformants unable to overproduce riboflavin in minimal medium was studied. For this, the toxicity of K2Cr2O7 (Cr^+6) was compared for the P. guilliermondii wild-type strain ATCC 9058 and regulatory mutants P. guilliermondii rib81 9-20 and 20-2. The cells were pregrown in liquid YPD to OD 1.5–2.0 (540 nm) and electroporated according to the protocol described (Example 34). Electroporated cells were washed three times with 10×volume of 0.6 M KCl and then the volume was adjusted to 1 ml. Then the cells were plated at 0.2 ml suspension per plate which contained 0.5% glycerol, 0.6 M KCl and K2Cr2O7 (50–1000 μM).
The visual selection of the non-overproducing riboflavin transformants is rather arbitrary and uncertain. Therefore it was decided to develop the method for positive selection of the transformants using tentative differences in sensitivity to K2Cr2O7 of wild-type P. guilliermondii and the regulatory mutants rib81 9-20 and 20-2. After 6 days of cultivation in the medium with 0.5% glycerol, it was shown that K2Cr2O7 at 150–180 μM inhibited growth of regulatory mutant 9-20 more strongly than that of the wild strain (Table 21).

[4] = test system: Pichia guilliermondii wild type and regulatory mutants (rib81); assay: Sensitivity after electroporation to K2Cr2O7, Burkholder medium with 0.3 M sucrose (Table 22); details: Cr^+6 100 to 600 μM

With `[K+].[K+].[O]=[Cr](=[O])([O-])[O][Cr](=[O])(=[O])[O-]` [K2Cr2O7] the growth ([1]; #2-5, K2Cr2O7 25 μM) was “+++”, the growth ([1]; #2-5, K2Cr2O7 30 μM) was “+++” and the growth ([1]; #2-5, K2Cr2O7 35 μM) was “+++”. The growth ([1]; #2-5, K2Cr2O7 40 μM) was “+++”, the growth ([1]; #2-5, K2Cr2O7 45 μM) was “+++” and the growth ([1]; #2-5, K2Cr2O7 55 μM) was “++”. The growth ([1]; #2-5, K2Cr2O7 85 μM) was “—”, the growth ([1]; #2-5, K2Cr2O7 100 μM) was “—” and the growth ([1]; #2-5, K2Cr2O7 125 μM) was “—”. For the same compound, the growth ([1]; #2-5, K2Cr2O7 150 μM) was “—”, the growth ([1]; #4-48, K2Cr2O7 25 μM) was “+++” and the growth ([1]; #4-48, K2Cr2O7 30 μM) was “+++”. The growth ([1]; #4-48, K2Cr2O7 35 μM) was “+++”, the growth ([1]; #4-48, K2Cr2O7 40 μM) was “+++” and the growth ([1]; #4-48, K2Cr2O7 45 μM) was “+++”. For the same compound, the growth ([1]; #4-48, K2Cr2O7 55 μM) was “++”, the growth ([1]; #4-48, K2Cr2O7 65 μM) was “—” and the growth ([1]; #4-48, K2Cr2O7 70 μM) was “—”. The growth ([1]; #4-48, K2Cr2O7 75 μM) was “—”, the growth ([1]; #4-48, K2Cr2O7 85 μM) was “—” and the growth ([1]; #4-48, K2Cr2O7 100 μM) was “—”. The growth ([1]; #4-48, K2Cr2O7 125 μM) was “—”, the growth ([1]; #4-48, K2Cr2O7 150 μM) was “—” and the growth ([1]; #75, K2Cr2O7 25 μM) was “+++”. For the same compound, the growth ([1]; #75, K2Cr2O7 30 μM) was “+++”, the growth ([1]; #75, K2Cr2O7 35 μM) was “+++” and the growth ([1]; #75, K2Cr2O7 45 μM) was “++”. For the same compound, the growth ([1]; #75, K2Cr2O7 55 μM) was “++”, the growth ([1]; #75, K2Cr2O7 65 μM) was “—” and the growth ([1]; #75, K2Cr2O7 70 μM) was “—”. The growth ([1]; #75, K2Cr2O7 75 μM) was “—”, the growth ([1]; #75, K2Cr2O7 85 μM) was “—” and the growth ([1]; #75, K2Cr2O7 100 μM) was “—”. The growth ([1]; #75, K2Cr2O7 125 μM) was “—”, the growth ([1]; #75, K2Cr2O7 150 μM) was “—” and the growth ([1]; L20105 (leu2), K2Cr2O7 25 μM) was “+++”. The growth ([1]; L20105 (leu2), K2Cr2O7 30 μM) was “+++”, the growth ([1]; L20105 (leu2), K2Cr2O7 35 μM) was “+++” and the growth ([1]; L20105 (leu2), K2Cr2O7 40 μM) was “+++”. The growth ([1]; L20105 (leu2), K2Cr2O7 45 μM) was “+++”, the growth ([1]; L20105 (leu2), K2Cr2O7 50 μM) was “+++” and the growth ([1]; L20105 (leu2), K2Cr2O7 55 μM) was “+++”. The growth ([1]; L20105 (leu2), K2Cr2O7 60 μM) was “+++”, the growth ([1]; L20105 (leu2), K2Cr2O7 65 μM) was “++” and the growth ([1]; L20105 (leu2), K2Cr2O7 70 μM) was “++”. For the same compound, the growth ([1]; L20105 (leu2), K2Cr2O7 75 μM) was “++”, the growth ([1]; L20105 (leu2), K2Cr2O7 85 μM) was “++” and the growth ([1]; L20105 (leu2), K2Cr2O7 100 μM) was “++”. The growth ([1]; L20105 (leu2), K2Cr2O7 125 μM) was “—”, the growth ([1]; L20105 (leu2), K2Cr2O7 150 μM) was “—” and the growth ([1]; L20105-3-2-4, K2Cr2O7 25 μM) was “+++”. For the same compound, the growth ([1]; L20105-3-2-4, K2Cr2O7 45 μM) was “—”, the growth ([1]; L20105-3-2-4, K2Cr2O7 50 μM) was “—” and the growth ([1]; L20105-3-2-4, K2Cr2O7 55 μM) was “—”. The growth ([1]; L20105-3-2-4, K2Cr2O7 60 μM) was “—”, the growth ([1]; L20105-3-2-4, K2Cr2O7 65 μM) was “—” and the growth ([1]; L20105-3-2-4, K2Cr2O7 70 μM) was “—”. For the same compound, the growth ([1]; L20105-3-2-4, K2Cr2O7 85 μM) was “—”, the growth ([1]; L20105-3-2-4, K2Cr2O7 100 μM) was “—” and the growth ([1]; L20105-3-2-4, K2Cr2O7 125 μM) was “—”. For the same compound, the growth ([1]; L20105-3-2-4, K2Cr2O7 150 μM) was “—”, the growth ([1]; L20105-3-2-8, K2Cr2O7 25 μM) was “+++” and the growth ([1]; L20105-3-2-8, K2Cr2O7 45 μM) was “—”. The growth ([1]; L20105-3-2-8, K2Cr2O7 50 μM) was “—”, the growth ([1]; L20105-3-2-8, K2Cr2O7 55 μM) was “—” and the growth ([1]; L20105-3-2-8, K2Cr2O7 60 μM) was “—”. For the same compound, the growth ([1]; L20105-3-2-8, K2Cr2O7 65 μM) was “—”, the growth ([1]; L20105-3-2-8, K2Cr2O7 70 μM) was “—” and the growth ([1]; L20105-3-2-8, K2Cr2O7 75 μM) was “—”. The growth ([1]; L20105-3-2-8, K2Cr2O7 85 μM) was “—”, the growth ([1]; L20105-3-2-8, K2Cr2O7 100 μM) was “—” and the growth ([1]; L20105-3-2-8, K2Cr2O7 125 μM) was “—”. The growth ([1]; L20105-3-2-8, K2Cr2O7 150 μM) was “—”, the growth ([1]; L20105-3-2-12, K2Cr2O7 25 μM) was “+++” and the growth ([1]; L20105-3-2-12, K2Cr2O7 45 μM) was “—”. The growth ([1]; L20105-3-2-12, K2Cr2O7 50 μM) was “—”, the growth ([1]; L20105-3-2-12, K2Cr2O7 55 μM) was “—” and the growth ([1]; L20105-3-2-12, K2Cr2O7 60 μM) was “—”. For the same compound, the growth ([1]; L20105-3-2-12, K2Cr2O7 65 μM) was “—”, the growth ([1]; L20105-3-2-12, K2Cr2O7 70 μM) was “—” and the growth ([1]; L20105-3-2-12, K2Cr2O7 75 μM) was “—”. For the same compound, the growth ([1]; L20105-3-2-12, K2Cr2O7 85 μM) was “—”, the growth ([1]; L20105-3-2-12, K2Cr2O7 100 μM) was “—” and the growth ([1]; L20105-3-2-12, K2Cr2O7 125 μM) was “—”. For the same compound, the growth ([1]; L20105-3-2-12, K2Cr2O7 150 μM) was “—”, the growth ([1]; VKM Y-9, K2Cr2O7 65 μM) was “+++” and the growth ([1]; VKM Y-9, K2Cr2O7 70 μM) was “+++”. For the same compound, the growth ([1]; VKM Y-9, K2Cr2O7 75 μM) was “+++”, the growth ([1]; VKM Y-9, K2Cr2O7 85 μM) was “+++” and the growth ([1]; VKM Y-9, K2Cr2O7 100 μM) was “+++”. For the same compound, the growth ([1]; VKM Y-9, K2Cr2O7 125 μM) was “++”, the “growth of wild-type strains VKM Y-9 and L20105 (leu2)” value ([2]; Cr^+6 0.15 mM) was “grow at this concentration quite satisfactory” and the “concentration toxic for the derepression mutants” value ([2]; Cr^+6 ions as K2Cr2O7) was 0.15 mM. For the same compound, the growth ([3]; #9-20 (leu2), K2Cr2O7 75 μM) was “+++”, the growth ([3]; #9-20 (leu2), K2Cr2O7 100 μM) was “++” and the growth ([3]; #9-20 (leu2), K2Cr2O7 150 μM) was “—”. The growth ([3]; #9-20 (leu2), K2Cr2O7 185 μM) was “—”, the growth ([3]; #9-20 (leu2), K2Cr2O7 240 μM) was “—” and the growth ([3]; ATCC9058, K2Cr2O7 75 μM) was “+++”. The growth ([3]; ATCC9058, K2Cr2O7 100 μM) was “+++”, the growth ([3]; ATCC9058, K2Cr2O7 125 μM) was “+++” and the growth ([3]; ATCC9058, K2Cr2O7 150 μM) was “+++”. For the same compound, the growth ([3]; ATCC9058, K2Cr2O7 185 μM) was “++”, the growth ([3]; ATCC9058, K2Cr2O7 240 μM) was “—” and the “difference in sensitivity between regulatory mutants and the wild type” value [4] was “no differences in sensitivity”.
